Series [1] is described as follows: In vitro stability in rat plasma. It is filed as in vitro ADME. The gist of the method:
(§1)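 Peptide remaining was followed by high-resolution LC-MS of methanol-quenched, centrifuged samples with internal standard. Incubations were at 37° C. over 4 hr, peptides at 5 μM final in rat plasma or in rat liver or kidney homogenate.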

Series [2] is described as follows: In vitro stability in rat liver homogenate. It is filed as in vitro ADME. As to conditions: tissue homogenate. The gist of the method: as §1
A short description of series [3]: In vitro stability in rat kidney homogenate. It is filed as in vitro ADME. As to conditions: rat, tissue homogenate. The method, then:
Apelin peptides were spiked into rat plasma, liver homogenate, and kidney homogenate, which were obtained from commercial sources, to a final concentration of 5 μM. The samples were then incubated at 37° C. over a period of 4 hr. […] In a typical experiment, an aliquot of 100 μL of sample was taken from the incubation vial, followed by addition of 300 μL of MeOH containing internal standard. The quenched sample was centrifuged at 5500 g for 15 min after 15 min vortex in room temperature. The supernatant was then analyzed by high resolution LC-MS. […] In vitro plasma, […], and kidney stability results are shown below in Table 14.

The target in the next series is T1, rat APJ receptor (Rattus norvegicus, UniProt Q9JHG3).
T1 construct: expressed in transfected cells
T1 sequence (Q9JHG3 1-377): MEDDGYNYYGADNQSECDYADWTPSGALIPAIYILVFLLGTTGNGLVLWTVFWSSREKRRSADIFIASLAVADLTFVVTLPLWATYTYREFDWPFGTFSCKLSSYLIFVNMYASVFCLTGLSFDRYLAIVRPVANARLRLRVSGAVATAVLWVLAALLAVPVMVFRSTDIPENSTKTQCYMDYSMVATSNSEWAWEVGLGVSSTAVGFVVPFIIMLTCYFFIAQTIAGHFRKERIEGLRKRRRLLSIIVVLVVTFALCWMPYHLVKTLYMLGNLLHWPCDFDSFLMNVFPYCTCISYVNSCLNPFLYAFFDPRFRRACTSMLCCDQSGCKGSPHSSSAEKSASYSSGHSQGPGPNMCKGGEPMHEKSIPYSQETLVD
Description: [35S] GTPγS assay, rat APJ receptor. It is filed as biochemical. The method, then: The membranes were incubated with modified peptides in the assay buffer. […] Bound [^35S] GTPγS was separated from free radiolabel by filtration. The filter bound radioactivity was determined by liquid scintillation counting.
On the technique in general: GTPγS is a poorly hydrolysed GTP analogue; its binding reports G protein activation.

[4] abbreviates: rat APJ receptor, read-out: EC50 Rat APJ Receptor.

As a reminder, the amount remaining is what is left of the initial amount, in per cent. A higher amount remaining goes with greater stability. As usually defined, the EC50 is the concentration at which the effect is half-maximal.

Read-outs that look alike come from different tables or passages of the source. Starred links: 1 amine or outer side, 2 acyl side, 3 side chain; linkers in the order of their positions; H or OH if unused. Non-standard residues stand in square brackets, D forms with d. Residues, ends and D or L forms follow the SMILES beside them. ξ: configuration not given here. *: point of attachment. dBip = N[C@H](Cc1ccc(-c2ccccc2)cc1)C(=O)O; Oic = O=C(O)[C@@H]1C[C@@H]2CCCC[C@@H]2N1; Phe(4-Cl) = N[C@@H](Cc1ccc(Cl)cc1)C(=O)O; Phe(4-I) = N[C@@H](Cc1ccc(I)cc1)C(=O)O; γGlu = O=C(O)[C@H](CCC(=O)[*:2])N[*:1]; NMeR = CN[C@@H](CCCNC(=N)N)C(=O)O; Tridecanoyl = CCCCCCCCCCCCC(=O)*; hArg = N=C(N)NCCCC[C@H](N)C(=O)O; Cha = N[C@@H](CC1CCCCC1)C(=O)O; NMeL = CN[C@@H](CC(C)C)C(=O)O; αMeL = CC(C)C[C@](C)(N)C(=O)O; αMeP = C[C@@]1(C(=O)O)CCCN1; β3hV = CC(C)[C@H](N)CC(=O)O; Nle = CCCC[C@H](N)C(=O)O; ξαMeP = CC1(C(=O)O)CCCN1; ξβ3hV = CC(C)C(N)CC(=O)O; AEEA = NCCOCCOCC(=O)O Where only a bound is given, the exact number is not on record here.

`CCCCCCCCCCCCC(=O)N[C@@H](CCC(=O)NCCOCCOCC(=O)NCCOCCOCC(=O)N[C@@H](CCCCNC(=N)N)C(=O)N[C@H](CCCNC(=N)N)C(=O)N[C@@H](CCC(N)=O)C(=O)N[C@@H](CCCC)C(=O)N1CCC[C@H]1C(=O)N[C@H](CCCNC(=N)N)C(=O)N(C)[C@@H](CC(C)C)C(=O)N[C@@H](CO)C(=O)N[C@@H](C)C(=O)N[C@@H](CCCCN)C(=O)NCC(=O)N1[C@H](C(=O)N[C@@H](Cc2ccc(I)cc2)C(=O)N2CCC[C@H]2C(=O)N[C@H](Cc2ccc(-c3ccccc3)cc2)C(=O)O)C[C@@H]2CCCC[C@@H]21)C(=O)O` [compound 328] ({Tridecanoyl-γGlu-AEEA-AEEA}-[hArg][dR]Q[Nle]P[dR][NMeL]SAKG[Oic][Phe(4-I)]P[dBip]-OH): the fraction remaining at 4 h, 5 μM in series [1] is 76%; in series [2] it was 0%; in series [3], 55%.

For `CCCCCCCCCCCCC(=O)N[C@@H](CCC(=O)NCCOCCOCC(=O)NCCOCCOCC(=O)N[C@@H](CCC(N)=O)C(=O)N[C@@H](CCCNC(=N)N)C(=O)N1CCCC1(C)C(=O)N[C@@H](CCCCNC(=N)N)C(=O)NC(CC(=O)N[C@@H](CO)C(=O)N[C@@H](Cc1c[nH]cn1)C(=O)N[C@@H](CCCCN)C(=O)NCC(=O)N1[C@H](C(=O)N[C@@H](CCCC)C(=O)N2CCC[C@H]2C(=O)N[C@@H](Cc2ccc(Cl)cc2)C(=O)O)C[C@@H]2CCCC[C@@H]21)C(C)C)C(=O)O` (stereo partly drawn) [compound 392] ({Tridecanoyl-γGlu-AEEA-AEEA}-QR[ξαMeP][hArg][ξβ3hV]SHKG[Oic][Nle]P[Phe(4-Cl)]-OH), the fraction remaining at 4 h, 5 μM is 73% in series [1], 82% in series [2] and below 1% in series [3].

In the case of `CCCCCCCCCCCCC(=O)N[C@@H](CCC(=O)NCCOCCOCC(=O)NCCOCCOCC(=O)N[C@H](CCC(N)=O)C(=O)N[C@@H](CCCNC(=N)N)C(=O)N1CCC[C@@]1(C)C(=O)N[C@@H](CCCCNC(=N)N)C(=O)N[C@H](CC(=O)N[C@@H](CO)C(=O)N[C@@H](Cc1c[nH]cn1)C(=O)N[C@@H](CCCCN)C(=O)NCC(=O)N1[C@H](C(=O)N[C@@H](CCCC)C(=O)N2CCC[C@@]2(C)C(=O)N[C@@H](Cc2ccc(Cl)cc2)C(=O)O)C[C@@H]2CCCC[C@@H]21)C(C)C)C(=O)O` [compound 502] ({Tridecanoyl-γGlu-AEEA-AEEA}-[dQ]R[αMeP][hArg][β3hV]SHKG[Oic][Nle][αMeP][Phe(4-Cl)]-OH), the amount remaining at 4 h, 5 μM in series [1] was above 90%; in series [2], 34%; in series [3], 19%.

For the compound `CCCCCCCCCCCCC(=O)N[C@@H](CCC(=O)NCCOCCOCC(=O)NCCOCCOCC(=O)N[C@@H](CCC(N)=O)C(=O)N[C@@H](CCCNC(=N)N)C(=O)N1CCC[C@H]1C(=O)N(C)[C@@H](CCCNC(=N)N)C(=O)N[C@@H](CC1CCCCC1)C(=O)N[C@@H](CO)C(=O)N[C@@H](Cc1c[nH]cn1)C(=O)N[C@@H](CCCCN)C(=O)NCC(=O)N1[C@H](C(=O)N[C@@H](CCCC)C(=O)N2CCC[C@@]2(C)C(=O)N[C@@H](Cc2ccc(Cl)cc2)C(=O)O)C[C@@H]2CCCC[C@@H]21)C(=O)O` [compound 412] ({Tridecanoyl-γGlu-AEEA-AEEA}-QRP[NMeR][Cha]SHKG[Oic][Nle][αMeP][Phe(4-Cl)]-OH), the amount remaining at 4 h, 5 μM came out at 77% in series [1], 76% in series [2] and 3% in series [3].

On to `CCCCCCCCCCCCC(=O)N[C@@H](CCC(=O)NCCOCCOCC(=O)NCCOCCOCC(=O)N[C@@H](CCC(N)=O)C(=O)N[C@@H](CCCNC(=N)N)C(=O)N1CCC[C@H]1C(=O)N(C)[C@@H](CCCNC(=N)N)C(=O)N[C@@](C)(CC(C)C)C(=O)N[C@@H](CO)C(=O)N[C@@H](Cc1c[nH]cn1)C(=O)N[C@@H](CCCCN)C(=O)NCC(=O)N1CCC[C@@]1(C)C(=O)N[C@@H](CCCC)C(=O)N1CCC[C@H]1C(=O)N[C@@H](Cc1ccc(Cl)cc1)C(=O)O)C(=O)O` [compound 387], for which the amount remaining at 4 h, 5 μM stood at 73% in series [1], 4% in series [2] and 1% in series [3].

For `CCCC[C@H](NC(=O)[C@@H]1CCCN1C(=O)CNC(=O)[C@H](CCCCN)NC(=O)[C@H](Cc1c[nH]cn1)NC(=O)[C@H](CO)NC(=O)[C@](C)(CC(C)C)NC(=O)[C@H](CCCNC(=N)N)N(C)C(=O)[C@@H]1CCCN1C(=O)[C@H](CCCCNC(=N)N)NC(=O)[C@H](CCC(N)=O)NC(C)=O)C(=O)N1CCC[C@H]1C(=O)N[C@@H](Cc1ccc(Cl)cc1)C(=O)O` [compound 71], the share remaining at 4 h, 5 μM amounted to 0% in series [1], 35.5% in series [2] and 0.1% in series [3].

Take `CCCCCCCCCCCCC(=O)N[C@@H](CCC(=O)NCCOCCOCC(=O)NCCOCCOCC(=O)N[C@H](CCC(N)=O)C(=O)N[C@@H](CCCNC(=N)N)C(=O)N1CCCC1(C)C(=O)N[C@@H](CCCCNC(=N)N)C(=O)NC(CC(=O)N[C@@H](CO)C(=O)N[C@@H](Cc1c[nH]cn1)C(=O)N[C@@H](CCCCN)C(=O)NCC(=O)N1CCCC1(C)C(=O)N[C@@H](CCCC)C(=O)N1CCCC1(C)C(=O)N[C@@H](Cc1ccc(Cl)cc1)C(=O)O)C(C)C)C(=O)O` (stereo partly drawn) [compound 504]: the fraction remaining at 4 h, 5 μM in series [1] is above 90%; in series [2], 11%; in series [3] it was 4%.

With `CCCCCCCCCCCCC(=O)N[C@@H](CCC(=O)NCCOCCOCC(=O)NCCOCCOCC(=O)N[C@H](CCC(N)=O)C(=O)N[C@@H](CCCCNC(=N)N)C(=O)N1CCC[C@H]1C(=O)N[C@H](CCCNC(=N)N)C(=O)N[C@@H](CC1CCCCC1)C(=O)N[C@@H](CO)C(=O)N[C@@H](Cc1ccc(O)cc1)C(=O)N[C@@H](CCCCN)C(=O)NCC(=O)N1[C@H](C(=O)N[C@@H](CCCC)C(=O)N2CCC[C@H]2C(=O)N[C@@H](Cc2ccc(Cl)cc2)C(=O)O)C[C@@H]2CCCC[C@@H]21)C(=O)O` [compound 373] ({Tridecanoyl-γGlu-AEEA-AEEA}-[dQ][hArg]P[dR][Cha]SYKG[Oic][Nle]P[Phe(4-Cl)]-OH), in series [3], the fraction remaining at 4 h, 5 μM turned out to be 64%.

As to `CCCC[C@H](NC(=O)[C@@H]1CCCN1C(=O)CNC(=O)[C@H](CCCCN)NC(=O)[C@H](Cc1c[nH]cn1)NC(=O)[C@H](CO)NC(=O)[C@](C)(CC(C)C)NC(=O)[C@H](CCCCNC(=N)N)NC(=O)[C@]1(C)CCCN1C(=O)[C@H](CCCNC(=N)N)NC(=O)[C@H](CCC(N)=O)NC(C)=O)C(=O)N1CCC[C@H]1C(=O)N[C@@H](Cc1ccc(Cl)cc1)C(=O)O` [compound 69], the amount remaining at 4 h, 5 μM in series [1] and in series [3] was below 1% in each case.

With `CCCCCCCCCCCCC(=O)N[C@@H](CCC(=O)NCCOCCOCC(=O)NCCOCCOCC(=O)N[C@@H](CCC(N)=O)C(=O)N[C@@H](CCCNC(=N)N)C(=O)N(C)[C@@H](CCCNC(=N)N)C(=O)N[C@@](C)(CC(C)C)C(=O)N[C@@H](CO)C(=O)N[C@@H](Cc1c[nH]cn1)C(=O)N[C@@H](CCCCN)C(=O)NCC(=O)N1[C@H](C(=O)N[C@@H](CCCC)C(=O)N2CCC[C@H]2C(=O)N[C@@H](Cc2ccc(Cl)cc2)C(=O)O)C[C@@H]2CCCC[C@@H]21)C(=O)O` [compound 396] ({Tridecanoyl-γGlu-AEEA-AEEA}-QR[NMeR][αMeL]SHKG[Oic][Nle]P[Phe(4-Cl)]-OH), at rat APJ receptor (Table 16, read-out: EC50 Rat APJ Receptor), the EC50 turned out to be 1.14 nM. Moreover, the amount remaining at 4 h, 5 μM in series [1] was above 90%; in series [2], below 1%.

On to `CCCCCC(=O)N[C@@H](CCC(=O)NCCOCCOCC(=O)NCCOCCOCC(=O)N[C@@H](CCC(N)=O)C(=O)N(C)[C@@H](CCCCNC(=N)N)C(=O)N1CCC[C@H]1C(=O)N(C)[C@@H](CCCNC(=N)N)C(=O)N[C@@](C)(CC(C)C)C(=O)N[C@@H](CO)C(=O)N[C@@H](Cc1c[nH]cn1)C(=O)N[C@@H](CCCCN)C(=O)NCC(=O)N1CCC[C@H]1C(=O)N[C@@H](CCCC)C(=O)N1CCC[C@H]1C(=O)N[C@@H](Cc1ccc(Cl)cc1)C(=O)O)C(=O)O` [compound 561], for which the EC50 at rat APJ receptor (setting [4]) is 5.94 nM. The amount remaining at 4 h, 5 μM in series [1] and in series [2] was below 1% in each case.

Consider `CC[C@H](NC(=O)[C@H](CC(N)=O)NC(=O)[C@H](Cc1c[nH]cn1)NC(=O)[C@H](CCCCN)NC(=O)[C@H](CCCNC(=N)N)NC(=O)[C@H](CC(C)C)NC(=O)[C@@H](N)CCCCN)C(=O)N[C@@H](CC(C)C)C(=O)N[C@@H](CCC(N)=O)C(=O)N[C@@H](CCCNC(=N)N)C(=O)N[C@@H](CCCNC(=N)N)C(=O)N[C@@H](CC)C(=O)N[C@@H](CCSC)C(=O)N1CCC[C@H]1C(=O)N[C@@H](CC(C)C)C(=O)N[C@@H](Cc1c[nH]cn1)C(=O)N[C@@H](CO)C(=O)N[C@@H](CCCNC(=N)N)C(=O)N[C@H](C(=O)N1CCC[C@H]1C(=O)N[C@@H](Cc1ccccc1)C(=O)N1CCC[C@H]1C(=O)O)C(C)C` [compound 14], for which the EC50 at rat APJ receptor (setting [4]) was found to be 32.4 nM. Besides, the fraction remaining at 4 h, 5 μM in series [1] and in series [2] was below 1% each time.

(Values after US11807693B2 (priority 2014, dated 2023).)
